The values below come from ChEMBL document CHEMBL4765420, “Design, synthesis and biological evaluation of novel HDAC inhibitors with improved pharmacokinetic profile in breast cancer” (Eur J Med Chem, 2020).

Experiment [1] addresses T1, Protein deacetylase HDAC6 (Homo sapiens, UniProt Q9UBN7).
T1 sequence (Q9UBN7 whole entry): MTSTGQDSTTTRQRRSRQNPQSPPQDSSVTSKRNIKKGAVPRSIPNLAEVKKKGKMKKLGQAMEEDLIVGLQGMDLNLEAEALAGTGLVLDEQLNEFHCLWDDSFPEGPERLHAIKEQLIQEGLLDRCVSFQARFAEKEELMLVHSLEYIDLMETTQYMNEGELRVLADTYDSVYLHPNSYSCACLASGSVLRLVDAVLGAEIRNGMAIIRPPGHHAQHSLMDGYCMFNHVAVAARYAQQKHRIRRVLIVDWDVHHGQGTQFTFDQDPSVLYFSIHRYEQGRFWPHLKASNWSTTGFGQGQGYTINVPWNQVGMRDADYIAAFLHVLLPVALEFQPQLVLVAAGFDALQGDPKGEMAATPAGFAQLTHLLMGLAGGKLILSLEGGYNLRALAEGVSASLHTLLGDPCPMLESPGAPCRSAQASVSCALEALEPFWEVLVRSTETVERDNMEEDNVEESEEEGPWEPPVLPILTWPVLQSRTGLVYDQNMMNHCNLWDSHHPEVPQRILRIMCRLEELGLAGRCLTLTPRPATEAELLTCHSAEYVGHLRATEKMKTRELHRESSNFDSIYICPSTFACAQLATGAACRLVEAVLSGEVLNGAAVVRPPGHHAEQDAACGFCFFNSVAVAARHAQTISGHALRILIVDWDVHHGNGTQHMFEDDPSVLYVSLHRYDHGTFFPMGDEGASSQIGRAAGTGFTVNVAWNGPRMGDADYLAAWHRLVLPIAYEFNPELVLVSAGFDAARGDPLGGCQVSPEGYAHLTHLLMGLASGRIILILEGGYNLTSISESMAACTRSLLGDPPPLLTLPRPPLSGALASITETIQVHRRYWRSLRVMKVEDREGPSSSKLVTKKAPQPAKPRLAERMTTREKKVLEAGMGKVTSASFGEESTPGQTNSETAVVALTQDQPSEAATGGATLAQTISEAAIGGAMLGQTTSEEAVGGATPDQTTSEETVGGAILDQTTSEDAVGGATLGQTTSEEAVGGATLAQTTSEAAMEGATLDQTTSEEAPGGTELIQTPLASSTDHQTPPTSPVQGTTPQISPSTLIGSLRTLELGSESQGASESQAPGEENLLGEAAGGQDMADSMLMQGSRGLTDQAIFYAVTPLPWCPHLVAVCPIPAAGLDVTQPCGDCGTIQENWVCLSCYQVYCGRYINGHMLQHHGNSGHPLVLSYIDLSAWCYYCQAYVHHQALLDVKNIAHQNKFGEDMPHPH
Put plainly: Inhibition of recombinant human His-tagged HDAC6 expressed in baculovirus infected insect cells using Ac-Leu-Gly-Lys(Ac)-AMC as substrate measured after 30 mins by fluorescence assay.

For another experiment, the system named is MDA-MB-231. Kind of experiment: Antiproliferative activity against human MDA-MB-231 cells measured after 24 hrs by MTT assay. Conditions: MDA-MB-231, 24 h. Format: functional, cell-based.

For `COc1cc(OC)c2c(N3CCSCC3)nc(-c3cc(C)c(OCC(=O)NO)c(C)c3)nc2c1`, the 50% inhibitory concentration (IC50) was greater than 20 µM in experiment [1] and 37.2 µM in the experiment on MDA-MB-231.
The corresponding values for `COc1cc(OC)c2c(N3CCOC[C@H]3C)nc(-c3cc(C)c(OCCCC(=O)NO)c(C)c3)nc2c1` are 0.33 µM and 11.3 µM.
As to `COc1cc(OC)c2c(N3CCOC[C@@H]3C)nc(-c3cc(C)c(OCCCC(=O)NO)c(C)c3)nc2c1`, the IC50 in experiment [1] stood at 0.36 µM; with MDA-MB-231, 10.8 µM.
For `COc1cc(OC)c2c(N3CCOC[C@@H]3C)nc(-c3cc(C)c(OCC(=O)NO)c(C)c3)nc2c1`, in that order: greater than 20 µM and 29.4 µM.
In the case of `COc1cc(OC)c2c(N3CCSCC3)nc(-c3cc(C)c(OCCCCC(=O)NO)c(C)c3)nc2c1`, the half-maximal inhibitory concentration (IC50) in experiment [1] worked out at 0.29 µM; in the experiment on MDA-MB-231 it was 9.83 µM.
For `COc1cc(OC)c2c(N3CCOC[C@H]3C)nc(-c3cc(C)c(OCCCCCC(=O)NO)c(C)c3)nc2c1`, the half-inhibitory concentration (IC50) in experiment [1] is 0.102 µM; with MDA-MB-231, 5.97 µM.
Turning to `COc1cc(OC)c2c(N3CCOC[C@H]3C)nc(-c3cc(C)c(OCC(=O)NO)c(C)c3)nc2c1`, the IC50 is greater than 20 µM in experiment [1] and 31.3 µM with MDA-MB-231.
As for `COc1cc(OC)c2c(N3CCOC[C@H]3C)nc(-c3cc(C)c(OCCCCC(=O)NO)c(C)c3)nc2c1`, the IC50 amounted to 0.22 µM in experiment [1] and 8.35 µM with MDA-MB-231.
Take `COc1cc(OC)c2c(N3CCOCC3)nc(-c3cc(C)c(OCC(=O)NO)c(C)c3)nc2c1`: the IC50 in experiment [1] is greater than 20 µM; with MDA-MB-231 it was 35.9 µM.
With `COc1cc(OC)c2c(N3CCOC[C@@H]3C)nc(-c3cc(C)c(OCCCCC(=O)NO)c(C)c3)nc2c1`, the concentration for half-maximal inhibition (IC50) in experiment [1] was determined as 0.19 µM; with MDA-MB-231, 6.6 µM.
For `COc1cc(OC)c2c(N3CCS(=O)(=O)CC3)nc(-c3cc(C)c(OCCCC(=O)NO)c(C)c3)nc2c1`, in that order: 0.85 µM and 18.4 µM.
As to `COc1cc(OC)c2c(N3CCSCC3)nc(-c3cc(C)c(OCCCCCC(=O)NO)c(C)c3)nc2c1`, the IC50 was 0.129 µM in experiment [1] and 8.89 µM with MDA-MB-231.
As to `COc1cc(OC)c2c(N3CCSCC3)nc(-c3cc(C)c(OCCCC(=O)NO)c(C)c3)nc2c1`, the IC50 in experiment [1] came to 0.42 µM; with MDA-MB-231 it was 15.7 µM.
Take `COc1cc(OC)c2c(N3CCS(=O)(=O)CC3)nc(-c3cc(C)c(OCC(=O)NO)c(C)c3)nc2c1`: the IC50 in experiment [1] was greater than 20 µM; in the experiment on MDA-MB-231, greater than 50 µM.
For `COc1cc(OC)c2c(N3CCOC[C@@H]3C)nc(-c3cc(C)c(OCCCCCC(=O)NO)c(C)c3)nc2c1`, in that order: 0.0985 µM and 3.79 µM.
With `COc1cc(OC)c2c(N3CCOCC3)nc(-c3cc(C)c(OCCCCC(=O)NO)c(C)c3)nc2c1`, the IC50 in experiment [1] worked out at 0.21 µM; in the experiment on MDA-MB-231 it was 7.21 µM.
Turning to `COc1cc(OC)c2c(N3CCOCC3)nc(-c3cc(C)c(OCCCCCC(=O)NO)c(C)c3)nc2c1`, the 50% inhibitory concentration (IC50) in experiment [1] came out at 0.119 µM; in the experiment with MDA-MB-231, 5.54 µM.
For `COc1cc(OC)c2c(N3CCS(=O)(=O)CC3)nc(-c3cc(C)c(OCCCCC(=O)NO)c(C)c3)nc2c1`, in that order: 0.13 µM and 12.1 µM.
On to `COc1cc(OC)c2c(N3CCOCC3)nc(-c3cc(C)c(OCCCC(=O)NO)c(C)c3)nc2c1`, for which the concentration for half-maximal inhibition (IC50) in experiment [1] came out at 0.35 µM; in the experiment with MDA-MB-231, 11.4 µM.
